Columns and labels:
c-MET [1] = assay: c-MET protein degradation (Simple Western), MKN-45 cells; format: cell-based, human; conditions: MKN-45 gastric cancer cells, c-MET overexpressing; 24 hours
Outline: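 Cells at 2×10^5 cells/well exposed to compound for 24 h (gastric lines) or 48 h (lung lines). Lysates (3 μg protein) probed for c-MET by capillary Simple Western, normalized to GAPDH and expressed as % of 0.1% DMSO control. DC50 is the concentration giving 50% protein reduction.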

c-MET [2] = assay: c-MET protein degradation (Simple Western), EBC-1 cells; format: cell-based, human; conditions: EBC-1 lung cancer cells, c-MET overexpressing; 48 hours
Procedure: (§1) In order to assess the resolution of the compound of the present invention for c-MET expressed in cells, cells were dispensed in a 12-well plate at a concentration of 2×10^5 cells/well, and then gastric cancer cell lines were treated with samples for 24 hours and lung cancer cell lines were treated for 48 hours. Cell lysates were collected using a scraper on ice, centrifuged at 4° C. 15,000 rpm for 30 min to obtain a protein-containing supernatant. Protein expression was then measured using the Simple Western Automated Western Blot System Abby instrument using 3 μg of protein for each sample. SDS and heat-induced denaturation proteins were separated by molecular weight, attached to capillary, reacted with anti-c-MET or anti-GAPDH antibodies, which are primary antibodies, and then reacted with HRP-conjugated secondary antibodies, and analyzed the protein expression signal with compass software. Protein expression was normalized based on the expression value of GAPDH, and protein development in each sample was measured as a percentage (%) based on 100% of samples treated with 0.1% DMSO carriers, and DC50 (concentration of a compound where 50% protein inhibition is achieved) was calculated from the change in protein expression amount due to compound treatment.

c-MET [3] = assay: c-MET protein degradation (Simple Western), SNU-638 cells; format: cell-based, human; conditions: SNU-638 gastric cancer cells, c-MET overexpressing; 24 hours
Procedure: as §1

c-MET [4] = assay: c-MET protein degradation (Simple Western), Hs746T cells; format: cell-based, human; conditions: Hs746T gastric cancer cells, c-MET exon 14 skipping mutant; 24 hours
Procedure: as §1

SNU-638 = assay: cell viability / antiproliferative activity (WST-8), SNU-638 cells; format: cell-based, human; conditions: SNU-638 gastric cancer cells, 72 hours
Procedure: (§2) c-MET overexpressing human gastric cancer cell lines [MKN45] and [SNU638] were cultured in RPMI medium with 10% fetal bovine serum, penicillin (100 U/ml), and streptomycin (100 mg/ml), and c-MET exon 14 skipping mutant human gastric cancer cell lines [Hs746T] were cultured in DMEM media. The c-MET overexpressing human lung cancer cell line EBC-1 was cultured in MEM media with the addition of 10% fetal bovine serum, penicillin (100 U/ml), and streptomycin (100 mg/ml). […] The compound synthesized in accordance with the present invention was prepared with a raw material solution of 10 mM dissolved in DMSO (dimethyl sulfoxide), and was sequentially diluted and processed.
(§3) In order to observe the inhibitory activity on cell growth, cells were dispensed in a 96-well plate at a concentration of 5,000 cells/well, and then treated with the compound prepared at various concentrations for 72 hours. The viability of the cells was calculated using GraphicPad Prism 8.0 software by adding 10 ml per well of WST-8 (water soluble tetrazolium salt) sample, which reacts with dehydrogenase present in the electron transport system of mitochondria to produce formazon, incubated for 2 hours, and measured absorbance at 450 nm.

EBC-1 = assay: cell viability / antiproliferative activity (WST-8), EBC-1 cells; format: cell-based, human; conditions: EBC-1 lung cancer cells, 72 hours
Procedure: as §2, §3

MKN-45 = assay: cell viability / antiproliferative activity (WST-8), MKN-45 cells; format: cell-based; conditions: Homo sapiens; MKN-45 gastric cancer cells; 72 hours
Procedure: as §2, §3

Row | Compound | DC50 (c-MET [1]) [nM] | DC50 (c-MET [2]) [nM] | DC50 (c-MET [3]) [nM] | DC50 (c-MET [4]) [nM] | IC50 (SNU-638; Homo sapiens) [nM] | IC50 (MKN-45) [nM] | IC50 (SNU-638) [nM] | IC50 (EBC-1; Homo sapiens) [nM] | IC50 (EBC-1) [nM]
1 | N#Cc1cccc(-c2ccc(=O)n(Cc3cccc(-c4ncc(OCC5CCN(CCCCCc6ccc7c(=O)n(C8CCC(=O)NC8=O)ncc7c6)CC5)cn4)c3)n2)c1 (stereo not shown) [ICT-0001304] | – | – | – | – | < 100 | – | – | – | –
2 | N#Cc1cccc(-c2ccc(=O)n(Cc3cccc(-c4ncc(OCC5CCN(CC(=O)N6CCN(c7ccc(NC8CCC(=O)NC8=O)c(F)c7)CC6)CC5)cn4)c3)n2)c1 (stereo not shown) [ICT-0001437, 3-(1-(3-(5-((1-(1-(2-(4-((2,6-dioxopiperidine-3-yl)amino)-3-fluorophenyl)piperazine-1-yl)-2-oxoethyl)piperidine-4-yl)methoxy)pyrimidine-2-yl)benzyl)6-oxo-1,6-dihydropyridazine-3-yl)benzonitrile] | – | < 100 | < 100 | – | < 100 | – | – | < 100 | –
3 | 3-((3-fluoro-4-(4-(2-(4-(4-(4-(2-(2-((S)-2-((5-(1-methyl-1H-pyrazole-4-yl)-1H-[1,2,3]triazolo[4,5-b]pyrazine-1-yl)methyl)morpholino)pyrimidine-5-yl)benzyl)piperazine-1-il)acetyl)piperazine-1-il)phenyl)amino)piperidine-2,6-dione [ICT-0001379] | – | < 100 | < 100 | – | – | – | < 100 | – | < 100
4 | N#Cc1cccc(-c2ccc(=O)n(Cc3cccc(-c4ncc(N5CCN(CC6CCN(c7ccc(NC8CCC(=O)NC8=O)cc7F)CC6)CC5)cn4)c3)n2)c1 (stereo not shown) [ICT-0001402] | – | < 100 | < 100 | < 100 | – | – | – | – | –
5 | Cc1nn(C2CCC(=O)NC2=O)c(=O)c2ccc(N3CCN(C4CCN(CCN5CCC(COc6cnc(-c7cccc(Cn8nc(-c9cccc(C#N)c9)ccc8=O)c7)nc6)CC5)CC4)CC3)cc12 (stereo not shown) [ICT-0001317] | – | – | – | – | < 100 | – | – | – | –

The next lines start with results.

Row | DC50 (c-MET [1]) [nM] | DC50 (c-MET [2]) [nM] | DC50 (c-MET [3]) [nM] | DC50 (c-MET [4]) [nM] | IC50 (SNU-638; Homo sapiens) [nM] | IC50 (MKN-45) [nM] | IC50 (SNU-638) [nM] | Compound | IC50 (EBC-1; Homo sapiens) [nM] | IC50 (EBC-1) [nM]
6 | < 100 | < 100 | < 100 | < 100 | – | – | – | Cc1nn(C2CCC(=O)NC2=O)c(=O)c2ccc(N3CCN(c4ccc(NC(=O)CN5CCC(COc6cnc(-c7cccc(Cn8nc(-c9cccc(C#N)c9)ccc8=O)c7)nc6)CC5)cc4)CC3)cc12 (stereo not shown) [ICT-0001207] | – | –
7 | < 100 | < 100 | < 100 | < 100 | – | – | – | Cc1nn(C2CCC(=O)NC2=O)c(=O)c2ccc(N3CCN(CCN4CCC(COc5cnc(-c6cccc(Cn7nc(-c8cccc(C#N)c8)ccc7=O)c6)nc5)CC4)CC3)cc12 (stereo not shown) [ICT-0001277, 3-(1-{[3-(5-{[1-(2-{4-[2-(2,6-dioxopiperidin-3-yl)-4-methyl-1-oxo-1,2-dihydrophthalazine-6-yl]piperazine-1-yl}ethyl)piperidine-4-il]methoxy}pyrimidine-2-yl)phenyl]methyl}6-oxo-1,6-dihydropyridazine-3-yl)benzonitrile] | – | –
8 | – | < 100 | > 1000 | – | 100 to 1000 | – | – | N#Cc1cccc(-c2ccc(=O)n(Cc3cccc(-c4ncc(OCC5CCN(Cc6cn(C7CCC(=O)NC7=O)nn6)CC5)cn4)c3)n2)c1 (stereo not shown) [ICT-0001384, 3-{1-[(3-{5-[(1-{[1-(2,6-dioxopiperidine-3-yl)-1H-1,2,3-triazole-4-yl]methyl}piperidine-4-il)methoxy]pyrimidine-2-yl}phenyl)methyl]-6-oxo-1,6-dihydropyridazine-3-yl}benzonitrile] | < 100 | –
9 | < 100 | < 100 | < 100 | – | < 100 | < 100 | – | Cc1nn(C2CCC(=O)NC2=O)c(=O)c2cc(N3CCN(CCC(=O)N4CCC(COc5cnc(-c6cccc(Cn7nc(-c8cccc(C#N)c8)ccc7=O)c6)nc5)CC4)CC3)ccc12 (stereo not shown) [ICT-0001215] | < 100 | –

Source: patent US20260306639A1, “DEGRADER FOR DECOMPOSING CMET PROTEIN, AND PHARMACEUTICAL COMPOSITION COMPRISING SAME” (INNOCURE THERAPEUTICS, INC., priority 2022, published 2026)
